Test results: patent EP2759295A1, “Foam cell specific Liver X Receptor (LXR) alpha agonist, SIRT1 inhibitors as well as p300 inhibitors as pharmaceutically active agents” (Max-Planck-Gesellschaft zur Förderung der Wissenschaften …, priority 2013, dated 2014)
Read-outs that look alike come from different tables or passages of the source.

Key:
Format in all cases: cell-based, human
foam cells [1] = experiment: triglyceride content in foam cells (Triglyceride Assay Kit); details: 10 µM, 48 h
Description: (§1) THP-1 monocytes were plated out into 24-well plates (Nunc) at a density of 2 x 10^5 cells/well. After differentiation and treatment cells were lysed with 100 µL lysis buffer (PBS, 0.25 M NaCl, 1% Triton X-100). Total and free cholesterol were determined using the colorimetric enzymatic Amplex Red Cholesterol Assay Kit (Invitrogen). Triglycerides were quantified by Triglyceride Assay Kit (BioVision). For normalisation protein content was determined with Pierce 660 nm Protein Assay Reagent (Thermo Scientific).

THP-1 macrophages [2] = experiment: qPCR gene expression of LXRα target genes in THP-1 macrophages
Description: (§2) For generating macrophages differentiation was induced by 10^-8 M Phorbol 12-myristate 13-acetate (PMA) (Sigma-Aldrich) for 48 h. Ligand treatment of macrophages was performed for further 24 h. To induce foam cell formation macrophages were treated for additional 48 h with 100 µg/mL modified human oxidized low density lipoprotein (oxLDL) obtained from Source BioScience (RP-048). Ligand treatment was performed simultaneously with foam cell formation. Cholesterol loading and treatment was controlled with Oil Red O staining (Alfa Aeser). To investigate ligand induced effects on cell proliferation of THP-1 macrophages CellTiter-Glo Luminescent Cell Viability Assay (Promega) was utilized.
(§3) Total RNA isolation and purification was performed by using the RNeasy Mini Kit (QIAGEN) and RNase-Free DNase Set (QIAGEN). cDNA was generated by reverse transcription using the High Capacity cDNA Reverse Transcription Kit (Applied Biosystems). Gene expression was quantified using the SYBR Green PCR Master Mix (Applied Biosystems) and ABI 7900HT Fast Real Time PCR System (Applied Biosystems). In each reaction 0.8 ng/µL cDNA and 0.2 µM primers were used. Gene expression was calculated with the ΔΔCt-method. β-Actin was used for normalisation.

foam cells [3] = experiment: siRNA-mediated LXRα/β knockdown in foam cells with qPCR; details: 10 µM ligand for 24 h
Description: Target specificity of ligand-dependent gene expression effects was investigated in siRNA-mediated LXRα and β-knockdown foam cells with subsequent qPCR or microarray analysis. Therefore, 2 x 10^5 THP-1 cells/well were differentiated in 24-well plate and induced to foam cells prior to knockdown as described above. Foam cells were transfected using TransIT-TKO transfection reagent (Mirus Bio), for combined knockdown with 15 nM LXRα Silencer Validated siRNA (Ambion, ID 5458) and 15 nM LXRβ Silencer Select Validated siRNA (Ambion, ID s14684) and with 30 nM LXRα or LXRβ for individual knockdowns, respectively. As control we used 30 nM Silencer Select Negative Control #1 (Ambion). Transfection was carried out for 48 h and followed by treatment with 10 µM ligand or vehicle control for 24 h.
as §3

THP-1 macrophages [4] = experiment: CellTiter-Glo viability assay in THP-1 macrophages
Description: as §2

foam cells [5] = experiment: Western blot of LXRα and APOE content in foam cells; details: densitometry
Description: Whole cell extracts were harvested from three biological replicates and denaturized for SDS-PAGE (NuPAGE Novex 4-12% Bis-Tris Gels). Proteins were blotted on nitrocellulose Hybond ECL membrane and incubated with strictly validated published antibodies against LXRα (Abcam, ab 41902), APOE (Abcam ab1906), and as housekeeping protein control β-Actin (Santa Cruz Biotechnology, sc-47778, C4). Secondary antibodies were HRP labeled anti-mouse and anti-rabbit (Santa Cruz Biotechnology). After detection with Western Lightning Plus-ECL solution membranes were stripped with Restore Plus Western Blot Stripping Buffer. Densitometry was performed in ImageQuant TL (GE Healthcare). This tool measures quantitatively the optical density and provides more accurate data than simple eye-observations. The calculation of log (protein of interest/ β-Actin) corrects data for loading imbalances.

foam cells [6] = experiment: cholesterol content in foam cells (Amplex Red Cholesterol Assay); details: 10 µM, 48 h
Description: as §1

C(=C\c1ccc(OCC2CO2)cc1)/c1ccccc1 (centres unmarked) [compound 1, 2-[[4-[(E)-styryl]phenoxy]-methyl]oxirane]
triglyceride levels (foam cells [1]): triglyceride levels were not increased | expression of LXRα target genes (LXRα, SREBF1, ABCA1, APOE) (THP-1 macrophages [2]; 10 µM): only marginally activated LXR-target genes in macrophages | ABCA1 expression (THP-1 macrophages [2]; in the presence of 1 µM T09): additive effects | gene expression of LXRα and ABCA1 after LXRα/β knockdown (foam cells [3]): higher dependency on the LXRα subtype | no cytotoxic effects / no reduction of cellular viability up to (THP-1 macrophages [4]): up to 50 µM | no cytotoxic effects / no reduction of cellular viability up to (THP-1 macrophages [4]; listed as Compound 1): up to 25 µM | protein expression levels of LXRα target genes (foam cells [5]): increased protein expression levels of LXRα target genes | total and esterified cholesterol content (foam cells [6]): significant reduction of total and esterified cholesterol content
